US20030153081A1, “Viral core protein-cationic lipid-nucleic acid-delivery complexes” (priority 1999, published 2003)

Experiments:
differentiated ND7 cells = test: X-gal histochemistry, transfection of differentiated ND7 cells; assay type: cell-based, rat/mouse
Procedure: ND7 cells were plated in a 24 well culture plate at a density of 4×10^4 cells per well in normal growth media (+serum). Twenty-four hours later the media was replaced with differentiation media and the cells were grown for an additional 24 hrs. Three different differentiation medias were used; serum-free (−serum), normal growth media plus 1 mM cAMP (cAMP), or reduced serum (0.5%) plus 1 mM cAMP and 50 ng/ml nerve growth factor (NGF). The cells were then transfected with pCMVb complexed with either DC-Chol/DOPE alone or Mu1 plus DC-Chol/DOPE. Forty-eight hours later the cells were fixed and processed for X-Gal histochemistry and the percentage of positive cells determined.
Differentiation of ND7 cells was carried out using three previously described methods ^28, 29. ND7 cells were seeded in NGM at a density of 4×10^4 cells per well in a 24 well culture dish (Nunc). Twenty four hours later the media was replaced with either: a) NGM supplemented with 1 mM adenosine 3′:5′-cyclic monophosphate (cAMP; Sigma), or b) serum-free differentiation media (50% Hams F12, 50% DMEM, 5 μg/mL Transterrin, 250 ng/mL Insulin, 0.3 μM sodium selenite), or c) low serum nerve growth factor (NGF) media (L-15 supplemented with 2 mM glutamine, 4 g/L glucose, 4 g/L sodium bicarbonate, 10 u/mL penicillin, […] streptomycin, 0.5% FCS, 1 mM cAMP, 50 ng/mL NGF (Alomone Labs)). Differentiated ND7 cells were grown in appropriate media for 24 hrs at 37° C., 5% CO2 prior to transfection.
We also examined the ability of Mu1 to improved cationic liposome-mediated transfection in differentiated ND7s. The ND7 cell line is derived from a fusion of primary rat dorsal root ganglia (DRG) neurons and the mouse neuroblastoma N18Tg2 ^28. ND7 cells can be differentiated in a variety of manners including the withdrawal of serum, cAMP administration or exposure to reduced serum plus cAMP and nerve growth factor. Differentiation of ND7s leads to the expression of cellular properties associated with their parental nociceptive sensory neurons including a reduction in cell division and the onset of neurite outgrowth. ND7 cells were seeded in 24 well culture plates and 24 hours later differentiated. Fifteen to 20 hours following the onset of differentiation, they were transfected as above. Fifteen to 20 hours following transfection, cells were fixed and processed for X-gal histochemistry. Consistent with previous observations, transfection efficiencies varied greatly between the three differentiated groups. […] In all three conditions, however, inclusion of Mu1 polypeptide in the transfection complex improved the transduction of differentiated ND7 cells. […] The greatest improvement in efficiencies was seen, however, in the group differentiated by serum withdrawal. Here, increases of greater than 10 fold were observed.

COS-7 cells = test: β-galactosidase enzyme assay, transfection of COS-7 cells; assay type: cell-based, Green Monkey; conditions: COS-7, same pDNA:Mu1:liposome ratio as optimal for ND7
Procedure: COS cells were seeded at a density of 60-80% confluence in 24 well culture dishes 24 hrs prior to transfection. Immediately prior to transfection, cells were washed in serum-free media Incubating pCMVβ with Mu1 prior to the addition of the cationic liposome DC-Chol/DOPE formed complexes capable of cellular transfection. In each case 1 μg pCMVβ was complexed with 12 μg Mu1 peptide that had been found optimal for ND7 cells. The pCMVβ:Mu1 complexes were then mixed with 3, 4 and 6 μg DC-Chol/DOPE. COS cells were exposed to transfection complexes for 2 hours then maintained at 37° C., 5% CO2 for another 24 hrs before being harvested and processed for β-galactosidase enzyme assay. Numbers represent means±SD, n=3.
COS-7 cells (derived from Green Monkey kidney) were grown in RPMI 1640 media (BRL) supplemented with 10% fetal bovine serum (BRL) and 100 IU/mL penicillin/streptomycin (BRL).
In order to see whether improved transfections could be achieved in other cell types we performed a similar analysis on COS-7 cells. […] The same ratio of pDNA:Mu1:liposome optimal for ND7 cells was best for COS-7, cells. A similar degree of improvement was also seen (3.7 fold) over cationic liposomes alone.

Swiss 3T3 cells = test: β-galactosidase assay, Mu1 vs protamine in confluent Swiss 3T3 cells; assay type: cell-based; conditions: liposome (B198:DOPE 3:2):peptide:DNA 12:0.6:1, final DNA concentration 5.0 μg/l, 1 or 2 h
From the text: Protamine is a naturally occurring cationic peptide abundant in piscine sperm and is potent in neutralising and condensing DNA. The transfection activity of protamine was compared with that of Mu1 peptide. Mu1 peptide or protamine sulfate (Sigma, grade X from Salmon) was complexed with DNA (pCMVβ) and then cationic liposomes (B 198:DOPE in a ratio of 3:2 m/m) giving a liposome:peptide:DNA ratio of 12:0.6:1 (w/w/w).
The transfection activities were examined in Swiss 3T3 cells. The cells were seeded at an approximate density of 2×10^4 per well in a 24-well culture plate in DMEM supplemented with 10% FCS and grown for 48 h to complete confluence in the presence of 5% CO2 at 37° C. Cells were washed by brief exposure to DMEM and then treated with solutions containing LMD or LD complexes, prediluted with DMEM (final DNA concentration 5.0 μg/l in all cases), for 1 or 2 h. Cells were then washed again and incubated for a further 48 h in DMEM supplemented with 10% FCS prior to harvesting. The level of β-galactosidase enzyme activity was determined with a standard assay kit (Promega).

HeLa cells = test: β-galactosidase assay, alternative cationic peptides in HeLa cells; assay type: cell-based, human; conditions: DC-Chol:DOPE liposome:peptide:DNA 12:0.6:1, 30 min, DNA 1.0 μg/ml
Procedure: In order to examine the effects of various alternative cationic peptides on transfection activities, a series of liposome:cationic peptide:DNA complexes were prepared and their relative transfection abilities analysed in vitro. The peptides used were poly-lysine hydrochloride (average molecular weight 3970, Sigma), poly arginine hydrochloride (average molecular weight 11800, Sigma) a peptide derived from protein V, pV (p5, sequence shown below), a peptide analogue of Mu1 (V, sequence shown below) and Mu1 peptide itself. The p5 peptide and V peptide were synthesized using the same solid-phase peptide synthesis methodology as was used to prepare Mu1 peptide.
Each peptide was combined with cationic liposome (DC-Chol:DOPE 3:2 m/m) and DNA (pCMVβ) in the liposome:peptide:DNA ratio of 12:0.6:1 (w/w/w) as described in Example 4. The transfection activities were examined using HeLa cells (human epithelial cells). The cells were seeded at an approximate density of 5×10^4 per well in a 24-well culture plate in DMEM supplemented with 10% FCS and grown for 24 h in the presence of 5% CO2 at 37° C. Cells were washed by brief exposure to DMEM and then treated with solutions containing LMD or LD complexes, prediluted with OPTIMEM (Gibco) (final DNA concentration 1.0 μg/ml in all cases), for 30 min. Cells were then washed again and incubated for a further 48 h in DMEM supplemented with 10% FCS prior to harvesting. The level of β-galactosidase enzyme activity was determined with a standard assay kit (chemiluminescent, Roche).

H-MRRAHHRRRRASHRRMRGG-OH [Mu1]
number of positive cells (FIG. 6) (differentiated ND7 cells; all three differentiation media, Mu1 plus DC-Chol/DOPE vs DC-Chol/DOPE alone): increased the number of positive cells | increased efficiency by inclusion of Mu1 (differentiated ND7 cells; differentiated by cAMP alone): greater than 6 fold | increased efficiency by inclusion of Mu1 (differentiated ND7 cells; differentiated by serum withdrawal): greater than 10 fold | increased efficiency by inclusion of Mu1 (differentiated ND7 cells; low serum/cAMP/NGF): greater than 6 fold | improvement over cationic liposomes alone (COS-7 cells): 3.7 fold | transfection compared with complexes comprising protamine (Swiss 3T3 cells): better transfection | transfection activity compared to poly lysine and poly arginine complexes (HeLa cells): excellent transfection activity
